Test results: patent US20210015830A1, “COMPOSITION FOR INHIBITING REACTIVE OXYGEN SPECIES PRODUCTION” (SUNTORY HOLDINGS LIMITED, priority 2017, published 2021)
Where two headings read alike, the source gives them in different places.

Experiments:
[1] = target: T1, NADPH oxidase (NOX) (Homo sapiens, UniProt P04839); assay: Measurement of NOX inhibitory activity in differentiated HL-60 cells (PMA-activated superoxide production, WST-1 formazan absorbance at 450 nm); type: cell-based; conditions: for Inhibitory activity ratio: 3-acetyl triterpenic acid versus the triterpenic acid without acetyl group, formula (i)
T1 construct: HL-60 cells were differentiated into NOX-expressing granulocytes; endogenous in cells; host or cells: HL-60 cells differentiated into granulocytes with 1% DMSO
T1 sequence (P04839 1-570): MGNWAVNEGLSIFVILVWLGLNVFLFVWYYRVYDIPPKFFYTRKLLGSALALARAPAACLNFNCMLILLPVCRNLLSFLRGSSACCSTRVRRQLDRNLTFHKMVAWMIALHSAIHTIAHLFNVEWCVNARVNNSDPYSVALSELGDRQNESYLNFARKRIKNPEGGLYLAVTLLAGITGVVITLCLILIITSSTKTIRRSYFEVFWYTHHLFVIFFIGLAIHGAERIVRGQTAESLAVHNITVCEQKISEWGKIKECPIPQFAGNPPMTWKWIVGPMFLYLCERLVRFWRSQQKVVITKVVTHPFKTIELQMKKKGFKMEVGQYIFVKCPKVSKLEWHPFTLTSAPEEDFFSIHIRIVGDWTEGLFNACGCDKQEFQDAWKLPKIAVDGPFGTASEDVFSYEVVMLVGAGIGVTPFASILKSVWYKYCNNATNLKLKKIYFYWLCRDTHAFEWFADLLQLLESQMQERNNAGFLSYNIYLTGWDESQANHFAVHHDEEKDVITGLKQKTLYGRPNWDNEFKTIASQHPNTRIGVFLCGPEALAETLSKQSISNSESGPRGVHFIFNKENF
T1 sequence (P13498 1-195 partner): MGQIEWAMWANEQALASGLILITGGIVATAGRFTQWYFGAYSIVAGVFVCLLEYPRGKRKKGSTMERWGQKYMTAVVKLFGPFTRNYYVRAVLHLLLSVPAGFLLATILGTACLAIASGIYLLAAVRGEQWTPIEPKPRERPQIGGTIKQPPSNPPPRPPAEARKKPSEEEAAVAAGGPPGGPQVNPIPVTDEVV
From the text: It is known that undifferentiated human myeloid leukemia HL-60 cells have an ability to proliferate, but differentiate into mature granulocytes by adding DMSO (dimethyl sulfoxide), retinoic acid, or the like and lose their proliferative ability. Mature HL-60 cells express NOX that serves as an indicator of differentiation. NOX can be used as an indicator for evaluating NOX inhibitory activity.
HL-60 cells were differentiated into NOX-expressing granulocytes by the following method.
Then, the suspension was dispensed into cell culture dishes (100 mm) so as to be 15 mL each, and the cells were cultured in a CO2 incubator (37° C.) for 3 days.
The differentiated HL-60 cells were used to measure NOX inhibitory activity as will be described below.
WST-1 (2-(4-iodophenyl)-3-(4-nitrophenyl)-5-(2,4-disulfophenyl)-2H-tetrazolium, monosodium salt) was dissolved in a D-MEM medium so as to be 0.8 mg/mL, and thus a WST-1 solution was prepared. WST-1 reacts with superoxide and produces yellow formazan. Yellow formazan absorbs a wavelength of 450 nm, and, therefore, the amount of yellow formazan can be measured by measuring absorbance at a wavelength of 450 nm. Also, the amount of yellow formazan produced is proportional to the amount of superoxide during the reaction, and, therefore, the amount of superoxide can be measured by measuring the amount of yellow formazan produced.
PMA (phorbol 12-myristate 13-acetate) was dissolved in a D-MEM medium so as to be 4 μM, and thus a PMA solution was prepared.
PMA is known to function to activate NOX and causes superoxide production.
The differentiated HL-60 cells were collected by centrifugation, and suspended in a D-MEM medium containing neither FBS nor phenol red so as to be 5×10^6 cells/mL.
The cell suspension was added into a 96-well microplate so as to be 25 μL per well.
Next, 25 μL of the WST-1 solution prepared as described above was added to the wells.
After adding the solutions, the cell suspensions were stirred.
Thereafter, 25 μL of the prepared PMA solution was added (a final PMA concentration in the medium being 1 μM) to activate NOX and carry out a reaction at 37° C. for 60 minutes.
Then, by measuring absorbance at a wavelength of 450 nm, the amount of yellow formazan produced and thus the amount of superoxide produced by NOX were measured.
Inhibitory activity ratio=(IC50 of triterpenic acid having acetyl group)/(IC50 of triterpenic acid without acetyl group) (i)
Based on the obtained measurement results, the IC50 (μg/mL) of fraction 1 and fraction 2 was determined.
Moreover, the inhibitory activity ratio of triterpenic acid having an acetyl group in fraction 2 to triterpenic acid without an acetyl group in fraction 1 was calculated using formula (i).

[2] = tested on: Senescent Accelerated Model Prone 10 (SAMP10) mouse; assay: Brain function evaluation by passive avoidance test (step-through test) in senescence accelerated model; type: in vivo; conditions: SAMP10 mice, AIN-93M containing 0.006% ursolic acid or 0.002% acetylursolic acid for 12 weeks, evaluated at 11 months old
Protocol: The effect of inhibiting a decline in brain function of the Aronia extract was evaluated using the extract powder obtained in Example 2. The Senescent Accelerated Model Prone 10 (SAMP10) mouse, which is one of the senescence accelerated models, is known to show age-related decline in brain function at an early stage, and can be used to evaluate effects on an age-related decline in brain function. Accordingly, this animal was used to investigate the brain function ameliorating effect of the Aronia extract. A series of animal experiments were carried out based on a plan that complies with the animal welfare management law and other relevant laws and that is approved by the head of an organization after being reviewed by an institutional animal experiment committee.
(§1) As for a young (young control) group, SAMP10 mice at 8 weeks old were purchased, acclimated for 7 days, and received AIN-93M (manufactured by CLEA Japan Inc.) as a base food for 12 weeks, and then the brain function was evaluated at 4 months old (N=15). As for an elderly group, mice at 14 weeks old were purchased, acclimated until 8 months old, randomly divided into 2 groups, received AIN-93M or AIN-93M containing 0.02% Aronia extract for 12 weeks, and then the brain function was evaluated at 11 months old (an elderly control group (N=26), an elderly Aronia received group (N=18)). The food was changed once a week, and the food intake and the body weight were measured once a week.
A brain function was evaluated using a passive avoidance test (a step-through test). […]
Mice were placed in a light room (9 cm width, 11.5 cm depth, 15 cm height) of a step-through passive avoidance response tester (manufactured by Muromachi Kikai Co., Ltd.), then a door to a dark room (14 cm width, 17.5 cm depth, 15 cm height) was opened 30 seconds later, and the time until the mice entered the dark room (the light room latency) was measured. […]
A retention trial was performed the day after the acquisition trial. The same operation as the acquisition trial was performed on the mice, and the latency in light room was measured. […] The latency was measured up to 300 seconds, and evaluations were made such that the longer the latency of the retention trial is, the higher the memory function is.
The brain function ameliorating effects of ursolic acid and acetylursolic acid contained in Aronia were compared in terms of the recovery of light room latency. […] When the mice reached 11 months old, a brain function was evaluated according to the method of Reference Example 1 (0.006% ursolic acid received group (N=8), and 0.002% acetylursolic acid received group (N=10)).

[3] = Body weight and food intake of SAMP10 mice during 12-week feeding; type: in vivo, mouse; conditions: AIN-93M containing 0.006% ursolic acid or 0.002% acetylursolic acid for 12 weeks
Protocol: as §1
The brain function ameliorating effects of ursolic acid and acetylursolic acid contained in Aronia were compared in terms of the recovery of light room latency. SAMP10 mice at 14 weeks old were purchased, acclimated until 8 months old, then randomly divided into two groups, and received AIN-93M containing 0.006% ursolic acid or AIN-93M containing 0.002% acetylursolic acid for 12 weeks. When the mice reached 11 months old, a brain function was evaluated according to the method of Reference Example 1 (0.006% ursolic acid received group (N=8), and 0.002% acetylursolic acid received group (N=10)).

[4] = standard products, differentiated HL-60 cells, 1 μM PMA, 37° C., 60 minutes, read-out: IC50

Row | IC50 [1, 4] | Compound | IC50 [1] | Inhibitory activity ratio [1] | latency in light room, acquisition trial [2] | latency in light room, retention trial [2] | body weight and food intake [3]
1 |  | CC(=O)O[C@H]1CC[C@]2(C)[C@H]3CC=C4[C@@H]5CC(C)(C)CC[C@]5(C(=O)O)CC[C@@]4(C)[C@]3(C)CC[C@H]2C1(C)C [3-Acetyloleanolic acid] | 10 µM | 4.4 times |  |  | 
2 | 6 µM | CC(=O)O[C@H]1CC[C@]2(C)[C@H]3CC=C4[C@@H]5[C@@H](C)[C@H](C)CC[C@]5(C(=O)O)CC[C@@]4(C)[C@]3(C)CC[C@H]2C1(C)C [3-Acetylursolic acid] |  | 7.3 times | no difference between groups | stronger effect on ameliorating brain function than ursolic acid | 
3 | 44 µM | C[C@H]1[C@H](C)CC[C@]2(C(=O)O)CC[C@]3(C)C(=CC[C@@H]4[C@@]5(C)CC[C@H](O)C(C)(C)[C@@H]5CC[C@]43C)[C@H]12 [Ursolic acid, reference compound] |  |  | no difference between groups | act to inhibit an age-related decline in brain function | no difference
